Results: ChEMBL document CHEMBL5247647, “Phenothiazine-Based LSD1 Inhibitor Promotes T-Cell Killing Response of Gastric Cancer Cells” (J Med Chem, 2023)
pIC50: −log10 of the molar value.

Target: Lysine-specific histone demethylase 1A (Homo sapiens, UniProt O60341)
Assay: Inhibition of recombinant LSD1 (unknown origin) expressed in Escherichia coli BL21 (DE3) using H3K4me2 peptide as substrate incubated for 30 mins by fluorescence based microplate reader assay

| pIC50 | SMILES |
| --- | --- |
| < 5.00 | CN(C)CCCN1c2ccccc2Sc2ccc(C(F)(F)F)cc21 [TRIFLUPROMAZINE] |
| 5.33 | CN(C)CCCN1c2ccccc2Sc2ccccc21 [PROMAZINE] |
